Eleven compounds from ChEMBL document CHEMBL4265921, “Novel bisphosphonates with antiresorptive effect in bone mineralization and osteoclastogenesis” (Eur J Med Chem, 2018) can be followed below.

Activity calls are given as the source filed them. The calls are words filed in the database; no cut-off is given here.

A word on the inhibition: it is the drop in the measured response relative to a control, in per cent. What is called IC50 is the concentration needed to halve the response being measured.

Data set [1] deals with RAW264.7. In words: Antiproliferative activity against mouse RAW264.7 cells assessed as reduction in cell proliferation at 500 uM after 72 hrs by crystal violet staining based assay. It is filed as functional.
Data set [2] has as its target T1, Farnesyl pyrophosphate synthase (Homo sapiens) (UniProt P14324).
T1 sequence (whole entry): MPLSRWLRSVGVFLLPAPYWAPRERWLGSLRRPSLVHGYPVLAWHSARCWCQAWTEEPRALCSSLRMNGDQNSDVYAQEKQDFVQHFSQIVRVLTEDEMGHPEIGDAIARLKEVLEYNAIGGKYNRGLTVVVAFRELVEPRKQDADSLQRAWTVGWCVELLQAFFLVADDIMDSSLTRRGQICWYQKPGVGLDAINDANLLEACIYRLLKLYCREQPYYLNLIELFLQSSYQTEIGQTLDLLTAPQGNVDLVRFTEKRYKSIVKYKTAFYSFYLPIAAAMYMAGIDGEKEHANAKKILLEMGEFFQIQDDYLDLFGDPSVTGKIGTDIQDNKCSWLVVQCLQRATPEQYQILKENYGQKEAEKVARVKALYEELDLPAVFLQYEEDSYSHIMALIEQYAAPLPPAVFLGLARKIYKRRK
Nature of the data set: Inhibition of recombinant human C-terminal His6-tagged FPPS expressed in Escherichia coli BL21 at 100 uM using DMAPP and IPP as substrates pretreated for 15 mins followed by substrates addition and measured after 1 hr by colorimetric method relative to control.

Data set [3] has as its target T1, Farnesyl pyrophosphate synthase (Homo sapiens). In words: Inhibition of recombinant human C-terminal His6-tagged FPPS expressed in Escherichia coli BL21 at 1 to 10 uM using DMAPP and IPP as substrates pretreated for 15 mins followed by substrates addition and measured after 1 hr by colorimetric method relative to control.
Data set [4] addresses T2, Geranylgeranyl pyrophosphate synthase (Homo sapiens) (UniProt O95749).
T2 sequence (whole entry): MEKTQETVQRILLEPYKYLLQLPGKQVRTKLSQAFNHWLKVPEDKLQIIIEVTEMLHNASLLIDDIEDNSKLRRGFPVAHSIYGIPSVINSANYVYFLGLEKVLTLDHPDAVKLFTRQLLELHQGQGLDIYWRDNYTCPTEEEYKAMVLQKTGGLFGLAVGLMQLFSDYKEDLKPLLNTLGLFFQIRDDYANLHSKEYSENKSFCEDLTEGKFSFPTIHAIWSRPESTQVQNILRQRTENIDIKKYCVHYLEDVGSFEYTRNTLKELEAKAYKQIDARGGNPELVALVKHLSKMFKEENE
In words: Inhibition of recombinant human C-terminal His6-tagged GGPPS expressed in Escherichia coli BL21 at 1 to 10 uM using IPP and FPP as substrates pretreated for 15 mins followed by substrates addition and measured after 1 hr by colorimetric method relative to control.

In data set [5] the test system is PC-3. In words: Antiproliferative activity against human PC3 cells assessed as reduction in cell proliferation at 500 uM after 72 hrs by crystal violet staining based assay. It is filed as functional.
The subject of data set [6] is MG-63. In words: Antiproliferative activity against human MG63 cells assessed as change in cell proliferation at 100 uM after 72 hrs by crystal violet staining based assay relative to control. It is filed as functional.
Data set [7] relates to RAW264.7. Nature of the data set: Antiproliferative activity against mouse RAW264.7 cells assessed as change in cell proliferation at 100 uM after 72 hrs by crystal violet staining based assay relative to control. It is filed as functional.
Data set [8] concerns J774.A1. Nature of the data set: Antiproliferative activity against mouse J774A.1 cells assessed as change in cell proliferation at 100 uM after 72 hrs by crystal violet staining based assay relative to control. The format is functional.
For data set [9], the system named is Hydroxyapatite. In words: Binding affinity to hydroxyapatite at 100 uM using sodium salt form of compound after 5 mins by ESI/MS analysis.
The target in data set [10] is T3, Farnesyl pyrophosphate synthase (Homo sapiens, UniProt P14324).
T3 sequence (P14324 whole entry): T1 sequence (whole entry)
Nature of the data set: Inhibition of recombinant human C-terminal His6-tagged FPPS expressed in Escherichia coli BL21 using DMAPP and IPP as substrates pretreated for 15 mins followed by substrates addition and measured after 1 hr by colorimetric method.

The subject of data set [11] is J774.A1. In words: Antiproliferative activity against mouse J774A.1 cells assessed as reduction in cell proliferation at 500 uM after 72 hrs by crystal violet staining based assay. The format is functional.
The subject of data set [12] is MG-63. In words: Antiproliferative activity against human MG63 cells assessed as reduction in cell proliferation at 500 uM after 72 hrs by crystal violet staining based assay. It is filed as functional.
Data set [13] deals with PC-3. In words: Antiproliferative activity against human PC3 cells assessed as change in cell proliferation at 100 uM after 72 hrs by crystal violet staining based assay relative to control. It is filed as functional.
The subject of data set [14] is RAW264.7. Nature of the data set: Antiproliferative activity against RANKL-differentiated mouse RAW264.7 cells assessed as reduction in cell viability at 100 uM after 72 hrs by CCK8 assay. It is filed as functional, cell-based. A general note: Formazan colour is commonly taken as a measure of viable cells.
For data set [15], the system named is J774.A1. In words: Antiproliferative activity against mouse J774A.1 cells assessed as reduction in cell viability at 100 uM after 72 hrs by WST8 assay. The format is functional, cell-based.
Data set [16] has as its system Bone marrow cell. In words: Cytotoxicity against C57BL mouse bone marrow cells assessed as effect on cell proliferation at 0.03 to 500 uM after 72 hrs by crystal violet staining based assay.
The test system of data set [17] is Bone marrow cell. Nature of the data set: Induction of mineralization in C57BL mouse bone marrow cells at >50 nM supplemented with fresh medium containing compound every 3 days for 10 to 15 days by alizarin red dye based assay. It is filed as functional.
Data set [18] relates to RAW264.7. In words: Inhibition of RANKL-induced osteoclastogenesis in mouse RAW264.7 cells after 72 hrs by TRAP staining based microscopic analysis. It is filed as functional, cell-based.
The subject of data set [19] is PC-3. Nature of the data set: Antiproliferative activity against human PC3 cells assessed as reduction in cell viability at 100 uM after 72 hrs by WST8 assay. It is filed as functional, cell-based.
Data set [20] concerns MG-63. Nature of the data set: Antiproliferative activity against human MG63 cells assessed as reduction in cell viability at 100 uM after 72 hrs by WST8 assay. The format is functional, cell-based.
Data set [21] concerns Bone marrow cell. Nature of the data set: Induction of mineralization in C57BL mouse bone marrow cells co-cultured with human PC3 cells at 50 to 100 nM supplemented with fresh medium containing compound every 3 days for 10 to 15 days by alizarin red dye based assay. The format is functional.
Data set [22] has as its system Bone marrow cell. Nature of the data set: Induction of mineralization in C57BL mouse bone marrow cells co-cultured with human PC3 cells at >100 nM supplemented with fresh medium containing compound every 3 days for 10 to 15 days by alizarin red dye based assay. The format is functional.
Data set [23] relates to MC3T3-E1. In words: Induction of mineralization in mouse MC3T3-E1 cells at >500 nM after 10 to 15 days by alizarin red dye based assay. The format is functional, cell-based.
The subject of data set [24] is Bone marrow cell. Nature of the data set: Induction of mineralization in C57BL mouse bone marrow cells at 50 nM supplemented with fresh medium containing compound every 3 days for 10 to 15 days by alizarin red dye based assay. It is filed as functional.
Data set [25] has as its system RAW264.7. Nature of the data set: Antiproliferative activity against mouse RAW264.7 cells assessed as reduction in cell viability at 100 uM after 72 hrs by WST8 assay. It is filed as functional, cell-based.

For `O=P(O)(O)C(O)(CCNc1ncc2ccccc2n1)P(=O)(O)O`, the outcome in data set [1], in data set [5], in [11] and in data set [12] was inactive. For the same compound, the results for the inhibition in [2], in data set [3] and in data set [4] were 79%, 68 to 79% and 68 to 79%, respectively. Further, the Activity in data set [6] is 1.174%; in [7], -52.95%; in data set [8], -59.879%; in data set [9] it was 84%; in data set [13], -13.524%. In [10], the IC50 was found to be 41 µM.
For the compound `O=P(O)(O)C(O)(CCNc1nc(-c2ccccc2)nc2ccccc12)P(=O)(O)O`, the outcome in data set [1], in [5], in data set [11] and in data set [12] was inactive. The inhibition in [2] is 25%; in data set [3] it was 68 to 79%; in data set [4], 68 to 79%. Besides, the Activity in [6] is -5.102%; in data set [7], -30.319%; in [8], -37.121%; in data set [13] it was -21.523%.
`O=P(O)(O)C(O)(CNc1nc(-c2ccccc2)nc2ccccc12)P(=O)(O)O`: the result in [1], in [5], in data set [11] and in [12] was inactive. Also, the inhibition in data set [2] is 21%; in data set [3], 68 to 79%; in data set [4] it was 68 to 79%. The Activity in data set [6] is given as -1.127%; in [7], -51.774%; in data set [8], -55.522%; in [13], 0.156%.
For the compound `CC(Nc1ncc2ccccc2n1)C(O)(P(=O)(O)O)P(=O)(O)O` (racemic), the outcome in [1], in data set [5], in data set [11] and in data set [12] was inactive. Also, the inhibition was 40% in data set [2], 68 to 79% in data set [3] and 68 to 79% in data set [4]. For the same compound, the Activity in data set [6] is given as -8.959%; in data set [7] it was -16.783%; in data set [8] it was -18.855%; in data set [13], -17.252%.
In the case of `O=P(O)(O)C(O)(CCNc1ncnc2ccccc12)P(=O)(O)O`, the result in data set [1], in data set [5], in data set [11] and in [12] was inactive. Further, the inhibition in data set [2] was 56%; in data set [3], 68 to 79%; in data set [4], 68 to 79%. The Activity is recorded as 13.185% in data set [6], -16.95% in data set [7], 6.688% in data set [8] and -1.552% in data set [13].
Take `O=P(O)(O)C(O)(CNc1ncnc2ccccc12)P(=O)(O)O`: the result in data set [1], in [5], in data set [11] and in [12] was inactive. In addition, the values for the inhibition in [2], in data set [3] and in [4] were 52%, 68 to 79% and 68 to 79%, respectively. Besides, the Activity in data set [6] was -15.397%; in [7] it was -34.592%; in data set [8], -27.398%; in [9], 81%; in data set [13], -9.488%.
For the compound `NCCCC(O)(P(=O)(O)O)P(=O)(O)O` [ALENDRONIC ACID], the result in [14], in data set [15], in [19], in [20], in [24] and in data set [25] was Active. The Activity entry in [16] is “Non-Toxic”. For the same compound, the outcome in data set [17], in [21], in data set [22] and in data set [23] was inactive. Also, the inhibition entry in data set [18] was “Active”.
Consider `O=P(O)(O)C(O)(CCCCc1ncccn1)P(=O)(O)O`, for which the result in [1], in data set [5], in data set [11] and in data set [12] was inactive. The inhibition in [2] is 51%; in [3] it was 68 to 79%; in [4], 68 to 79%. Besides, the Activity is reported as -0.023% in data set [6], -35.941% in data set [7], -24.754% in data set [8] and -14.446% in data set [13].
For `O=P(O)(O)C(O)(CNc1ncc2ccccc2n1)P(=O)(O)O`, the result in data set [1], in [5], in data set [11] and in [12] was inactive. In addition, the figures for the inhibition in [2], in data set [3] and in data set [4] were 39.9%, 68 to 79% and 68 to 79%, respectively. Moreover, the Activity is listed as -15.998% in [6], -25.015% in data set [7], -11.108% in data set [8] and -23.934% in data set [13].
For `CC(Nc1ncnc2ccccc12)C(O)(P(=O)(O)O)P(=O)(O)O` (racemic), the outcome in [1], in data set [5], in data set [11] and in [12] was inactive. Also, the inhibition was 56% in [2], 68 to 79% in [3] and 68 to 79% in data set [4]. The Activity in [6] is listed as -4.026%; in [7] it was -11.295%; in data set [8], -5.898%; in data set [13], -15.839%.
For `O=P(O)(O)C(O)(CCCNc1ncnc2ccccc12)P(=O)(O)O`, the result in data set [1], in [5], in data set [11] and in data set [12] was inactive. Further, the inhibition in data set [2] is 25%; in data set [3], 68 to 79%; in data set [4] it was 68 to 79%. Besides, the Activity in data set [6] is 21.28%; in [7], -16.077%; in data set [8] it was -10.813%; in data set [13] it was -27.057%.
